Laboratory results taken from US9029409B2, “Isoxazolines as therapeutic agents” (AbbVie Inc., priority 2011, dated 2015).

Target: T1, recombinant human MMP13 catalytic domain (CD) (Homo sapiens, UniProt P45452)
T1 construct: catalytic domain (CD) construct encompassing residues 20-274 (SWISS-PROT P45452); made in house
Assay: MMP-13 catalytic domain FRET enzyme assay
Format: biochemical
Conditions: recombinant human MMP-13 catalytic domain
Protocol: A recombinant human MMP13 catalytic domain (CD) construct encompassing residues 20-274 (SWISS-PROT P45452) was generated by synthetic gene methods and bacterial expression. MMP-13 activity assays were performed using the recombinant human MMP-13 CD at a 0.4 nM concentration and the fluorogenic substrate (QXL-520)-K-P-L-A˜Nva-Dap(5-FAM)-A-R-NH2 (Anaspec cat #60554-01, San Jose, Calif.) at a 0.25 μM concentration in assay buffer containing […], pH 7.5, 10 mM CaCl2, 150 mM NaCl, 0.05% Brij 35. The assay is based on the cleavage of this substrate by MMP-13, resulting in decrease of FRET between the donor-acceptor pair and subsequent fluorescence enhancement. The assays were carried out in 384-well plates (Greiner cat #781076, Germany) for 60 min at RT. After the incubation period, the reaction was quenched by the addition of 5 μL of 500 mM EDTA (100 mM final concentration) (Rankem, Cat #E0120, India) mixed well and the rate of substrate hydrolysis was determined by monitoring change in fluorescence at excitation and emission wavelengths of 485 nm and 535 nm respectively. Fluorescence was measured on a Victor V5 plate reader (Perkin Elmer, Turku, Finland). The test compounds used for assessing the potency of inhibition of MMP-13 activity were dissolved in DMSO (final DMSO concentration in the assay was 5%). Selected compounds were also screened against full length MMP13 (R&D Systems (Cat. No. 511-MM-010), Minneapolis, Minn.) at 2 nM concentration using the same fluorogenic substrate mentioned above. The enzyme was activated using 1 m Mp-aminophenylmercuric acetate—APMA (Cat #A-9563, Sigma, Germany).
Data analysis: The percent inhibition of the enzyme activity in presence of test compounds were calculated using the equation, percent (%) Inhibition=100−[(Fi/Fc)*100] where Fc is the fluorescence corresponding to initial enzyme activity and Fi is the fluorescence corresponding to the enzyme activity in presence of inhibitor. The IC50 values were calculated by fitting the dose-response data to a sigmoidal curve fitting equation using Graph Pad prism software (Version 5, La Jolla, Calif.).
MMP13 Catalytic Domain (CD) Potency of the Described Examples Determined Using Time Resolved Fluorescence Resonance Energy Transfer (FRET) Enzyme Assays: […]

Row | SMILES | IC50 [nM]
1 | COc1ccc(CNC(=O)c2cc(C3=NOC(c4ccc(OC)cc4)C3)nc(C)n2)cc1 (stereo not drawn) | 10 to 100
2 | COc1ccc(CNC(=O)c2cc(C3=NOC(c4ccc(N5CCOCC5)cc4)C3)nc(C)n2)cc1 (stereo not drawn) | 10 to 100
3 | COc1ccc(CNC(=O)c2cc(C3=NOC(c4ccc(N5CCCCC5)cc4)C3)nc(C)n2)cc1 (stereo not drawn) | 100 to 1000
4 | COc1ccc(CNC(=O)c2cc(C3=NOC(c4ccc(N(C)C)cc4)C3)nc(C)n2)cc1 (stereo not drawn) | 100 to 1000
5 | COc1ccc(CNC(=O)c2cc(C3=NOC(c4cccc(OCCO)c4)C3)nc(C)n2)cc1 (stereo not drawn) | 10 to 100
6 | COc1ccc(CNC(=O)c2cc(C3=NOC(c4ccccn4)C3)nc(C)n2)cc1 (stereo not drawn) | 100 to 1000
7 | COc1ccc(CNC(=O)c2cc(C3=NOC(C4CCCCC4)C3)nc(C)n2)cc1 (stereo not drawn) | 10 to 100
8 | Cc1nc(C(=O)NCc2ccc(F)c(C)c2)cc(C2=NOC(C3CCN(S(C)(=O)=O)CC3)C2)n1 (stereo not drawn) | < 10
9 | Cc1nc(C(=O)NCc2ccc(F)c(C)c2)cc(C2=NOC(C3CCN(C(=O)CO)CC3)C2)n1 (stereo not drawn) | 10 to 100
10 | COc1cc(CNC(=O)c2cc(C3=NOC(c4cnccn4)C3)nc(C)n2)ccc1F (stereo not drawn) | 10 to 100
11 | COc1cc(CNC(=O)c2cc(C3=NOC(C4CCN(C(=O)C(C)(C)O)CC4)C3)nc(C)n2)ccc1F (stereo not drawn) | 10 to 100
12 | COc1cc(CNC(=O)c2cc(C3=NOC(C4CCN(S(=O)(=O)C5CC5)CC4)C3)nc(C)n2)ccc1F (stereo not drawn) | 10 to 100
13 | Cc1nc(C(=O)NCc2ccc(F)c(F)c2)cc(C2=NOC(c3ccccn3)C2)n1 (stereo not drawn) | 10 to 100
14 | CC(=O)N1CCC(C2CC(c3cc(C(=O)NCc4ccc(F)c(F)c4)nc(C)n3)=NO2)CC1 (stereo not drawn) | 10 to 100
15 | Cc1nc(C(=O)NCc2ccc(F)c(F)c2)cc(C2=NOC(C3CCN(S(C)(=O)=O)CC3)C2)n1 (stereo not drawn) | 10 to 100
16 | Cc1nc(C(=O)NCc2ccc(F)c(F)c2)cc(C2=NOC(C3CCN(C(=O)CO)CC3)C2)n1 (stereo not drawn) | 10 to 100
17 | CCS(=O)(=O)N1CCC(C2CC(c3cc(C(=O)NCc4ccc(F)c(OC)c4)nc(C)n3)=NO2)CC1 (stereo not drawn) | < 10
18 | COc1cc(CNC(=O)c2cc(C3=NOC(C4CCN(C(=O)C(C)C)CC4)C3)nc(C)n2)ccc1F (stereo not drawn) | 10 to 100
19 | Cc1nc(C(=O)NCc2ccc(F)cc2)cc(C2=NOC(c3ccccn3)C2)n1 (stereo not drawn) | 10 to 100
20 | CC(=O)N1CCC(C2CC(c3cc(C(=O)NCc4ccc(F)c(Cl)c4)nc(C)n3)=NO2)CC1 (stereo not drawn) | 10 to 100
21 | Cc1nc(C(=O)NCc2ccc(F)c(Cl)c2)cc(C2=NOC(C3CCN(C(=O)CO)CC3)C2)n1 (stereo not drawn) | 10 to 100
22 | COc1cccc(CNC(=O)c2cc(C3=NOC(c4ccccn4)C3)nc(C)n2)c1 (stereo not drawn) | 10 to 100

Row | SMILES | IC50 [nM]
23 | CC(=O)N1CCC(C2CC(c3cc(C(=O)NCc4ccc(F)cc4)nc(C)n3)=NO2)CC1 (stereo not drawn) | 10 to 100
24 | Cc1nc(C(=O)NCc2ccc(F)cc2)cc(C2=NOC(C3CCN(S(C)(=O)=O)CC3)C2)n1 (stereo not drawn) | < 10
25 | Cc1nc(C(=O)NCc2ccc(F)cc2)cc(C2=NOC(C3CCN(C(=O)CO)CC3)C2)n1 (stereo not drawn) | 10 to 100
26 | COc1cccc(CNC(=O)c2cc(C3=NOC(C4CCN(C(C)=O)CC4)C3)nc(C)n2)c1 (stereo not drawn) | 10 to 100
27 | COc1cccc(CNC(=O)c2cc(C3=NOC(C4CCN(S(C)(=O)=O)CC4)C3)nc(C)n2)c1 (stereo not drawn) | < 10
28 | COc1cccc(CNC(=O)c2cc(C3=NOC(C4CCN(C(=O)CO)CC4)C3)nc(C)n2)c1 (stereo not drawn) | 10 to 100
29 | COc1cc(CNC(=O)c2cc(C3=NOC(C4CCN(C(=O)CN(C)C)CC4)C3)nc(C)n2)ccc1F (stereo not drawn) | 10 to 100
30 | COc1cc(CNC(=O)c2cc(C3=NOC(C4CCN(S(=O)(=O)C(C)C)CC4)C3)nc(C)n2)ccc1F (stereo not drawn) | < 10
31 | COCC(=O)N1CCC(C2CC(c3cc(C(=O)NCc4ccc(F)c(OC)c4)nc(C)n3)=NO2)CC1 (stereo not drawn) | 10 to 100
32 | COc1cc(CNC(=O)c2cc(C3=NOC(C4CCN(C(=O)C5CCC5)CC4)C3)nc(C)n2)ccc1F (stereo not drawn) | 10 to 100
33 | COc1cc(CNC(=O)c2cc(C3=NOC(C4CCN(C(=O)CNS(C)(=O)=O)CC4)C3)nc(C)n2)ccc1F (stereo not drawn) | 10 to 100
34 | COc1cc(CNC(=O)c2cc(C3=NOC(c4ccc(C#N)cn4)C3)nc(C)n2)ccc1F (stereo not drawn) | < 10
35 | COc1cc(CNC(=O)c2cc(C3=NOC(c4ccc(CO)cn4)C3)nc(C)n2)ccc1F (stereo not drawn) | < 10
36 | CNC(=O)c1ccc(C2CC(c3cc(C(=O)NCc4ccc(F)c(OC)c4)nc(C)n3)=NO2)nc1 (stereo not drawn) | 10 to 100
37 | CNC(=O)NCC(=O)N1CCC(C2CC(c3cc(C(=O)NCc4ccc(F)c(OC)c4)nc(C)n3)=NO2)CC1 (stereo not drawn) | 10 to 100
38 | COc1cc(CNC(=O)c2cc(C3=NOC(c4ccc(C(C)O)cn4)C3)nc(C)n2)ccc1F (stereo not drawn) | < 10
39 | COc1cc(CNC(=O)c2cc(C3=NOC(C4CCN(C(=O)N(C)CCO)CC4)C3)nc(C)n2)ccc1F (stereo not drawn) | < 10
40 | COc1cc(CNC(=O)c2cc(C3=NOC(C4CCN(C(=O)NC(C)C)CC4)C3)nc(C)n2)ccc1F (stereo not drawn) | 10 to 100
41 | COc1cc(CNC(=O)c2cc(C3=NOC(C4CCN(S(=O)(=O)c5nccn5C)CC4)C3)nc(C)n2)ccc1F (stereo not drawn) | < 10
42 | COc1cc(CNC(=O)c2cc(C3=NOC(C4CCN(S(=O)(=O)c5cn(C)cn5)CC4)C3)nc(C)n2)ccc1F (stereo not drawn) | < 10
43 | COc1cc(CNC(=O)c2cc(C3=NOC(C4CCN(S(=O)(=O)c5cn(C)c(C)n5)CC4)C3)nc(C)n2)ccc1F (stereo not drawn) | < 10
44 | COc1cc(CNC(=O)c2cc(C3=NOC(C4CCN(S(=O)(=O)c5c(C)noc5C)CC4)C3)nc(C)n2)ccc1F (stereo not drawn) | < 10

Row | SMILES | IC50 [nM]
45 | COc1cc(CNC(=O)c2cc(C3=NOC(c4ccc(S(C)(=O)=O)cn4)C3)nc(C)n2)ccc1F (stereo not drawn) | < 10
46 | COc1cc(CNC(=O)c2cc(C3=NOC(c4ccc(=O)n(C)c4)C3)nc(C)n2)ccc1F (stereo not drawn) | 10 to 100
47 | COc1cc(CNC(=O)c2cc(C3=NOC(c4ccc(C(C)=O)cn4)C3)nc(C)n2)ccc1F (stereo not drawn) | < 10
48 | COc1cc(CNC(=O)c2cc(C3=NOC(c4ccc(-c5nc(C)no5)cn4)C3)nc(C)n2)ccc1F (stereo not drawn) | < 10
49 | Cc1nc(C(=O)NCc2ccc(F)cc2)cc(C2=NO[C@H]([C@H]3CO[C@H](CO)CO3)C2)n1 | 10 to 100
50 | Cc1nc(C(=O)NCc2ccc(F)cc2)cc(C2=NO[C@@H]([C@H]3CO[C@H](CO)CO3)C2)n1 | > 1000
51 | COc1ccc(CNC(=O)c2cc(C3=NO[C@H]([C@H]4CO[C@H](CO)CO4)C3)nc(C)n2)cc1 | 10 to 100
52 | COc1ccc(CNC(=O)c2cc(C3=NO[C@@H]([C@H]4CO[C@H](CO)CO4)C3)nc(C)n2)cc1 | > 1000
53 | COc1cccc(CNC(=O)c2cc(C3=NO[C@@H]([C@H]4CO[C@H](CO)CO4)C3)nc(C)n2)c1 | > 1000
54 | COc1ccc(C2CC(c3ccnc(C(=O)NCc4cccc(OC)c4)c3)=NO2)cc1 (stereo not drawn) | 10 to 100
55 | COc1cccc(CNC(=O)c2cc(C3=NOC(C)(c4ccc(Cl)cc4)C3)ccn2)c1 (stereo not drawn) | > 1000
56 | COc1cccc(CNC(=O)c2cc(C3=NOC(c4ccc(C(=O)O)cc4)C3)ccn2)c1 (stereo not drawn) | < 10
57 | COc1ccc(CNC(=O)c2cc(C3=NOC(c4ccc(CN(C)C)cc4)C3)ccn2)cc1 (stereo not drawn) | > 1000
58 | COc1ccc(CNC(=O)c2cc(C3=NOC(c4ccc(C(=O)O)cc4)C3)ccn2)cc1 (stereo not drawn) | 10 to 100
59 | COc1ccc(CNC(=O)c2cc(C3=NOC(C)(c4ccc(Cl)cc4)C3)ccn2)cc1 (stereo not drawn) | 100 to 1000
60 | COc1ccc(CNC(=O)c2cc(C3=NOC(C)(c4ccccc4)C3)ccn2)cc1 (stereo not drawn) | > 1000
61 | COc1ccc(CNC(=O)c2cc(C3=NOC(c4cnccn4)C3)ccn2)cc1 (stereo not drawn) | > 1000
62 | COc1ccc(CNC(=O)c2cc(C3=NOC(c4ccc(OC)cc4)C3)ccn2)cc1 (stereo not drawn) | 100 to 1000
63 | COc1cccc(CNC(=O)c2cc(C3=NO[C@H]([C@H]4CO[C@H](CO)CO4)C3)nc(C)n2)c1 | 10 to 100
64 | COc1cccc(CNC(=O)c2cc(C3=NO[C@@H]([C@@H]4CO[C@@H](CO)CO4)C3)nc(C)n2)c1 | > 1000
65 | COc1cccc(CNC(=O)c2cc(C3=NO[C@H]([C@@H]4CO[C@@H](CO)CO4)C3)nc(C)n2)c1 | 10 to 100
66 | Cc1nc(C(=O)NCc2ccc(F)cc2)cc(C2=NO[C@@H]([C@@H]3CO[C@@H](CO)CO3)C2)n1 | > 1000
